Test results as given in patent US4521335A, “Aglycone and pseudo-aglycones of the AAD 216 antibiotics” (SmithKline Beckman Corporation, priority 1984, dated 1985).
Converted amounts (≈) assume the structure as drawn.

Assays:
Staph. aureus HH127 = assay: MIC, standard microtiter assay; assay type: cell-based
[1] = test system: k. pneumoniae 4200 (SK & F 798); assay: MIC, standard microtiter assay; assay type: cell-based; conditions: Klebsiella pneumoniae
[2] = test system: Serratia marcesens ATCC 13880; assay: MIC, standard microtiter assay; assay type: cell-based; conditions: ATCC13880
[3] = test system: Salmonella gallinarum SK & F BC595; assay: microbe, parasite or virus in culture; assay type: cell-based; conditions: Salmonella enterica
[4] = test system: Listeria monocytogenes SK & F 2255; assay: MIC, standard microtiter assay; assay type: cell-based
[5] = test system: Staph. epidermidis SK & F 651; assay: MIC, standard microtiter assay; assay type: cell-based; conditions: Staphylococcus epidermidis
[6] = test system: Staph. aureus SK & F 1761; assay: MIC, standard microtiter assay; assay type: cell-based; conditions: Staphylococcus aureus
[7] = test system: Staph. aureus SK & F 2678; assay: MIC, standard microtiter assay; assay type: cell-based; conditions: Staphylococcus aureus
[8] = test system: Staph. aureus SK & F 2680; assay: MIC, standard microtiter assay; assay type: cell-based; conditions: Staphylococcus aureus
[9] = test system: Staph. aureus SK & F 2743; assay: MIC, standard microtiter assay; assay type: cell-based; conditions: Staphylococcus aureus
[10] = test system: Staph. aureus SK & F 2612; assay: MIC, standard microtiter assay; assay type: cell-based; conditions: Staphylococcus aureus
[11] = test system: Staph. aureus SK & F 2616; assay: MIC, standard microtiter assay; assay type: cell-based; conditions: Staphylococcus aureus
[12] = test system: Staph. aureus SK & F 2589; assay: MIC, standard microtiter assay; assay type: cell-based; conditions: Staphylococcus aureus
[13] = test system: Staph. aureus SK & F 2590; assay: MIC, standard microtiter assay; assay type: cell-based; conditions: Staphylococcus aureus
[14] = test system: Staph. aureus SK & F 2591; assay: MIC, standard microtiter assay; assay type: cell-based; conditions: Staphylococcus aureus
[15] = test system: Bacteroides fragilis ATCC 25285; assay: MIC, standard microtiter assay; assay type: cell-based; conditions: ATCC25285
B. loeochis SK & F 3087 = assay: MIC, standard microtiter assay; assay type: cell-based; conditions: Table D, Anaerobes
Source text: The AAD 216 aglycone, the AAD 216 pseudo-aglycone, the AAD 216A pseudo-aglycone, the AAD 216B pseudo-aglycone and the AAD 216C pseudo-aglycone were neutralized with sodium bicarbonate prior to testing.

[16] = test system: B. thetaiotamicron SK & F 3089; assay: MIC, standard microtiter assay; assay type: cell-based
C. perfringens MCP-2 = assay: microbe, parasite or virus in culture; assay type: cell-based; conditions: Clostridium perfringens
[17] = test system: C. perfringens ATCC 19408; assay: microbe, parasite or virus in culture; assay type: cell-based; conditions: Clostridium perfringens, ATCC19408
[18] = test system: Clostridium difficile SK & F 3062; assay: MIC, standard microtiter assay; assay type: cell-based; conditions: Clostridioides difficile
C. difficile SK & F 3065 = assay: MIC, standard microtiter assay; assay type: cell-based; conditions: Clostridioides difficile
[19] = test system: Staph. aureus SK & F 209P-mutant; assay: microbe, parasite or virus in culture; assay type: cell-based; conditions: Staphylococcus aureus
[20] = test system: Staph. aureus SK & F 674-P6-mutant; assay: microbe, parasite or virus in culture; assay type: cell-based; conditions: Staphylococcus aureus
[21] = test system: Staph. epidermidis SK & F 2265; assay: MIC, standard microtiter assay; assay type: cell-based; conditions: Staphylococcus epidermidis
[22] = test system: Strep. faecalis SK & F 657; assay: MIC, standard microtiter assay; assay type: cell-based; conditions: Enterococcus faecalis
E. coli SK & F 12140 = assay: MIC, standard microtiter assay; assay type: cell-based; conditions: Escherichia coli
[23] = test system: Salmonella gallinarum BC-595; assay: microbe, parasite or virus in culture; assay type: cell-based; conditions: Salmonella enterica
B. thetaiotomicron H-145 = assay: MIC, standard microtiter assay; assay type: cell-based
C. difficile SK & F 3141 = assay: MIC, standard microtiter assay; assay type: cell-based; conditions: Clostridioides difficile
[24] = test system: inoculum (ileal or cecal cannula filtrate); assay: swine in vitro model, growth promotant activity; conditions: experiment I, 5 hours, 37° C.; for GLU (% Control): glucose; for LAC (% Control): lactic acid; for LYS (% Control): lysine; for VFA (% Control): total volatile fatty acids

CN[C@H](CC(C)C)C(=O)N[C@H]1C(=O)N[C@@H](CC(N)=O)C(=O)N[C@H]2C(=O)N[C@H]3C(=O)N[C@H](C(=O)N[C@H](C(=O)O)c4cc(O)cc(O)c4-c4cc3ccc4O)[C@H](O)c3ccc(c(Cl)c3)Oc3cc2cc(c3O[C@@H]2O[C@H](CO)[C@@H](O)[C@H](O)[C@H]2O[C@H]2C[C@](C)(N)[C@H](O)[C@H](C)O2)Oc2ccc(cc2Cl)[C@H]1O [Vancomycin, vancomycin]
MIC (Staph. aureus HH127; Staphylococcus aureus, HH127): 1.6 µg/mL (≈ 1.1 µM)
MIC (Staph. aureus HH127; Table A, Staph. aureus HH127): 1.6 µg/mL (≈ 1.1 µM)
MIC (Staph. aureus HH127; Table E, Staph. aureus HH127): 1.6 µg/mL (≈ 1.1 µM)
MIC [1]: > 100 µg/mL
MIC [2]: > 100 µg/mL
MIC [3]: 25 µg/mL (≈ 17.3 µM)
MIC ([4]; Table A): 1.6 µg/mL (≈ 1.1 µM)
MIC ([4]; Table E): 0.8 µg/mL (≈ 0.552 µM)
MIC ([5]; Table A, Staph. epidermidis SK & F 651): 1.6 µg/mL (≈ 1.1 µM)
MIC ([5]; Table E, Staph. epidermidis SK & F 651, first entry): 3.1 µg/mL (≈ 2.14 µM)
MIC ([5]; Table E, Staph. epidermidis SK & F 651, second entry): 3.1 µg/mL (≈ 2.14 µM)
MIC [6]: 1.6 µg/mL (≈ 1.1 µM)
MIC [7]: 1.6 µg/mL (≈ 1.1 µM)
MIC [8]: 1.6 µg/mL (≈ 1.1 µM)
MIC [9]: 1.6 µg/mL (≈ 1.1 µM)
MIC [10]: 1.6 µg/mL (≈ 1.1 µM)
MIC [11]: 0.8 µg/mL (≈ 0.552 µM)
MIC [12]: 1.6 µg/mL (≈ 1.1 µM)
MIC [13]: 1.6 µg/mL (≈ 1.1 µM)
MIC [14]: 1.6 µg/mL (≈ 1.1 µM)
MIC [15]: 32 µg/mL (≈ 22.1 µM)
MIC (B. loeochis SK & F 3087): 32 µg/mL (≈ 22.1 µM)
MIC [16]: 32 µg/mL (≈ 22.1 µM)
MIC (C. perfringens MCP-2; MCP2, Table D, Anaerobes): 0.5 µg/mL (≈ 0.345 µM)
MIC (C. perfringens MCP-2; MCP2, Table F): 2 µg/mL (≈ 1.38 µM)
MIC [17]: 1 µg/mL (≈ 0.69 µM)
MIC ([18]; Table D, Anaerobes, Clostridium difficile SK & F 3062): 2 µg/mL (≈ 1.38 µM)
MIC ([18]; Table F, C. difficile SK & F 3062): 0.5 µg/mL (≈ 0.345 µM)
MIC (C. difficile SK & F 3065; Table D, Anaerobes): 4 µg/mL (≈ 2.76 µM)
MIC (C. difficile SK & F 3065; Table F): 1 µg/mL (≈ 0.69 µM)
MIC [19]: 100 µg/mL (≈ 69 µM)
MIC [20]: 100 µg/mL (≈ 69 µM)
MIC [21]: 3.1 µg/mL (≈ 2.14 µM)
MIC [22]: 3.1 µg/mL (≈ 2.14 µM)
MIC (E. coli SK & F 12140): > 100 µg/mL
MIC [23]: > 100 µg/mL
MIC (B. thetaiotomicron H-145): > 32 µg/mL
MIC (C. difficile SK & F 3141): 1 µg/mL (≈ 0.69 µM)
GLU (% Control) ([24]; 1.67 ppm): 100 % Control
LAC (% Control) ([24]; 1.67 ppm): 99 % Control
LYS (% Control) ([24]; 1.67 ppm): 83 % Control
VFA (% Control) ([24]; 1.67 ppm): 92 % Control
GLU (% Control) ([24]; 16.67 ppm): 189 % Control
LAC (% Control) ([24]; 16.67 ppm): 59 % Control
LYS (% Control) ([24]; 16.67 ppm): 42 % Control
VFA (% Control) ([24]; 16.67 ppm): 280 % Control
GLU (% Control) ([24]; 166.67 ppm): 190 % Control
LAC (% Control) ([24]; 166.67 ppm): 64 % Control
LYS (% Control) ([24]; 166.67 ppm): 48 % Control
VFA (% Control) ([24]; 166.67 ppm): 250 % Control
